Values after ≈ are worked out from the molar mass of the structure shown. Where a SMILES comes first, the peptide text is derived from it. [ ]: non-standard residue; d: D form. The star is where a group is joined. Fumaryl(OMe) = COC(=O)/C=C/C(=O)*; Dap = NC[C@H](N)C(=O)O
Assays:
Format in all cases: cell-based, Candida albicans
[1] = system: C. albicans SC 5314 cells; assay: Morphological changes, Calcofluor White staining for chitin; details: SC 5314 cells in RPMI-1640, 6 h, 30°C, F11 100 μg mL^-1
Experimental: Candida albicans cells from the overnight cultures in YPD were harvested, washed with sterile saline and suspended in the RPMI-1640 medium, to the final cell density of 10^5 cfu mL^-1. The compounds tested were added at appropriate concentrations and cultures were incubated for 6 h at 30°C, with shaking. At time intervals, samples of 0.1 mL were collected and cells were stained for chitin. The culture samples were combined with 0.1 mL aliquots of the Calcofluor White solution [0.3 mg mL^-1 in 25 mM phosphate-buffered saline (PBS), pH 7.0] and incubated for 5 min at 25°C. The cells were then harvested, washed four times with PBS, re-suspended in 0.1 mL of the fresh PBS and transferred to a microscopic slide. The stained cells were examined with the Olympus BX 60 F5 fluorescence microscope and photographs were taken using the Studio Lite software (Pixera Corporation, United States).
Since the anticandidal activity of P10 was moderate but independent on medium content and that of F11 was higher but strongly influenced by medium composition, it seemed obvious that the molecular bases of growth inhibitory activity of P10 and F11 were different and that a higher activity of F11 resulted from the presence of FMDP in its structure. To confirm whether the anticandidal activity of F11 was a consequence of GlcN6P synthase inhibition by FMDP, a morphology of SC 5314 cells treated with F11 was compared to that of the untreated cells. The cells were stained with Calcofluor White, the fluorescent brightener that binds specifically to chitin in the fungal cell wall. […] Since it is well known that the primary septum is built of chitin, this finding confirms that the action of F11 results in inhibition of chitin biosynthesis.

[2] = system: C. albicans isolate NF3; details: YNB-SG medium
Source text: (§1) The in vitro growth inhibitory activity of antifungals was quantified by determination of minimal inhibitory concentration (MIC) values by the serial twofold dilution method, using the 96-well microtiter plates in three media: buffered RPMI-1640, YNB-AS, and YNB-SG. Conditions of the RPMI-1640-based assay were the same as outlined in the CLSI recommendations ([Clinical Laboratory Standards Institute, 2008]), except for the end-point readout that was done by spectrophotometric determination of cell density at 531 nm. Turbidity in individual wells was measured with a microplate reader (Victor^3; Perkin Elmer). MIC was defined as the lowest drug concentration that gave at least an 80% decrease in turbidity, relative to that of the drug-free growth control.
(§2) The 96-well microtiter plates were also used for determination of in vitro growth inhibitory activity in YPD and YNB-based media. Individual wells were inoculated with 5 × 10^3 cfu mL^-1 of C. albicans cells from the overnight culture in YPD medium. The inoculated plates were incubated 37°C for 24 h and then turbidity was measured with a microplate reader at 531 nm, as described above for the RPMI-1640-based assay.
(§3) Candida albicans cells, apparently resistant to FMDP-peptides, were isolated from the individual colonies formed on the surface of YNB-SG agar medium containing FMDP-peptide, 10 μg mL^-1 or within the growth inhibitory zones around the paper discs saturated with 10 μL of the FMDP-peptide solution, 1 mg mL^-1. In both versions, the agar surface was inoculated with 10^5 cells from the overnight culture in YPD medium, washed three times with sterile water, suspended in 0.2 mL of sterile water and the cell suspension was spread on the whole surface with a sterile glass rod. Plates were incubated for 48 h at 30°C and isolated colonies were picked with a platinum loop.
(§4) Growth inhibitory activity of FMDP-oligopeptides against C. albicans SC 5314 was also determined by the disc diffusion method. […] Cells grown in these colonies were collected, re-grown in YNB-AS and tested for sensitivity to FMDP-oligopeptides.

[3] = system: C. albicans isolate LNF2; details: YNB-SG medium
Source text: as §1, §2, §3, §4

[4] = system: C. albicans isolate NF2; details: YNB-SG medium
Source text: as §1, §2, §3, §4

[5] = system: C. albicans isolate LNF1; details: YNB-SG medium
Source text: as §1, §2, §3, §4

[6] = system: C. albicans isolate NF1; details: YNB-SG medium
Source text: as §1, §2, §3, §4

[7] = system: C. albicans isolate LNF3; details: YNB-SG medium
Source text: as §1, §2, §3, §4

[8] = system: C. albicans opt4Δ; assay: Initial peptide uptake rate; details: 50 mM potassium phosphate buffer (pH 5.0 or 6.5) + 1% glucose, 30°C, 100 μM peptide, TNBS A420, slope 0- to 10-min
Procedure, shortened: (§5)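 Exponentially grown yeast in 50 mM potassium phosphate (pH 5.0 or 6.5) with 1% glucose at 30°C received oligopeptide at a final 100 μM. Residual peptide in filtrates was measured every 5 min by trinitrobenzenesulfonate assay (A420). Initial rates come from 0–10 min slopes, per mg dry cells.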

[9] = system: C. albicans opt5Δ; assay: Initial peptide uptake rate; details: 50 mM potassium phosphate buffer (pH 5.0 or 6.5) + 1% glucose, 30°C, 100 μM peptide, TNBS A420, slope 0- to 10-min
Procedure, shortened: as §5

[10] = system: C. albicans opt2Δ opt3Δ; assay: Initial peptide uptake rate; details: 50 mM potassium phosphate buffer (pH 5.0 or 6.5) + 1% glucose, 30°C, 100 μM peptide, TNBS A420, slope 0- to 10-min
Procedure, shortened: as §5

[11] = system: C. albicans SC5314; assay: Initial peptide uptake rate; details: SC 5314; cells grown in YNB-SG; 50 mM potassium phosphate buffer (pH 5.0 or 6.5) + 1% glucose, 30°C, 100 μM peptide, residual peptide by TNBS A420, slope 0- to 10-min
Procedure, shortened: as §5

[12] = system: C. albicans opt1–opt5Δ ptr2Δ ptr22Δ; assay: Initial peptide uptake rate; details: 50 mM potassium phosphate buffer (pH 5.0 or 6.5) + 1% glucose, 30°C, 100 μM peptide, TNBS A420, slope 0- to 10-min
Procedure, shortened: as §5

[13] = system: C. albicans opt1Δ; assay: Initial peptide uptake rate; details: 50 mM potassium phosphate buffer (pH 5.0 or 6.5) + 1% glucose, 30°C, 100 μM peptide, TNBS A420, slope 0- to 10-min
Procedure, shortened: as §5

[14] = system: C. albicans ptr2Δ ptr22Δ; assay: Initial peptide uptake rate; details: 50 mM potassium phosphate buffer (pH 5.0 or 6.5) + 1% glucose, 30°C, 100 μM peptide, TNBS A420, slope 0- to 10-min
Procedure, shortened: as §5

Row | SMILES | Morphological changes (primary septum / chitin) [1] | MIC [2] | MIC [3] | MIC [4] | MIC [5] | MIC [6] | MIC [7] | Uptake rate ± SD [8] | Uptake rate ± SD [9] | Uptake rate ± SD [10] | Uptake rate ± SD [11] | Uptake rate ± SD [12] | Uptake rate ± SD [13] | Uptake rate ± SD [14]
1 | COC(=O)/C=C/C(=O)NC[C@H](NC(=O)[C@H](CCSC)NC(=O)[C@@H](NC(=O)[C@@H]1CCCN1C(=O)[C@H](CC(C)C)NC(=O)[C@@H](N)CCCCN)C(C)C)C(=O)O [Peptide F6, Lys-Leu-Pro-Val-Met-FMDP] (H-KLPVM[Dap](Fumaryl(OMe))-OH; N-terminus and C-terminus assumed) | analogous to those observed for F11-treated cells | 4 µg/mL (≈ 5.1 µM) | 8 µg/mL (≈ 10.2 µM) | 4 µg/mL (≈ 5.1 µM) | 4 µg/mL (≈ 5.1 µM) | 4 µg/mL (≈ 5.1 µM) | 4 µg/mL (≈ 5.1 µM) | 2.99 ± 0.11 nmol min^-1 (mg dry weight)^-1 | 2.03 ± 0.15 nmol min^-1 (mg dry weight)^-1 | 0.56 ± 0.09 nmol min^-1 (mg dry weight)^-1 | 3.12 ± 0.20 nmol min^-1 (mg dry weight)^-1 | 0.18 ± 0.03 nmol min^-1 (mg dry weight)^-1 | 2.08 ± 0.15 nmol min^-1 (mg dry weight)^-1 | 3.00 ± 0.25 nmol min^-1 (mg dry weight)^-1
2 | COC(=O)/C=C/C(=O)NC[C@H](N)C(=O)N[C@@H](CCCNC(=N)N)C(=O)N[C@@H](CCCCN)C(=O)N[C@@H](CCCCN)C(=O)N[C@@H](Cc1c[nH]c2ccccc12)C(=O)N[C@@H](Cc1ccccc1)C(=O)N[C@@H](Cc1c[nH]c2ccccc12)C(=O)O [Peptide F7, FMDP-Arg-Lys-Lys-Trp-Phe-Trp] (H-[Dap](Fumaryl(OMe))RKKWFW-OH; N-terminus and C-terminus assumed) | analogous to those observed for F11-treated cells | 16 µg/mL (≈ 13.9 µM) | 16 µg/mL (≈ 13.9 µM) | 16 µg/mL (≈ 13.9 µM) | 16 µg/mL (≈ 13.9 µM) | 16 µg/mL (≈ 13.9 µM) | 16 µg/mL (≈ 13.9 µM) | 1.85 ± 0.12 nmol min^-1 (mg dry weight)^-1 | 1.44 ± 0.10 nmol min^-1 (mg dry weight)^-1 | 0.46 ± 0.08 nmol min^-1 (mg dry weight)^-1 | 2.40 ± 0.16 nmol min^-1 (mg dry weight)^-1 | 0.23 ± 0.02 nmol min^-1 (mg dry weight)^-1 | 1.70 ± 0.12 nmol min^-1 (mg dry weight)^-1 | 2.22 ± 0.16 nmol min^-1 (mg dry weight)^-1
3 | COC(=O)/C=C/C(=O)NC[C@H](N)C(=O)N[C@@H](CCCCN)C(=O)N[C@@H](CCCCN)C(=O)N[C@H](C(=O)N[C@H](C(=O)N[C@@H](Cc1ccccc1)C(=O)N[C@@H](Cc1c[nH]c2ccccc12)C(=O)N[C@H](C(=O)N[C@@H](CCCCN)C(=O)N[C@@H](Cc1ccccc1)C(=O)N[C@@H](CCCCN)C(=O)O)C(C)C)C(C)C)C(C)C [Peptide F11, FMDP-Lys-Lys-Val-Val-Phe-Trp-Val-Lys-Phe-Lys] (H-[Dap](Fumaryl(OMe))KKVVFWVKFK-OH; N-terminus assumed) | defective in formation of a primary septum | 16 µg/mL (≈ 10.6 µM) | 32 µg/mL (≈ 21.2 µM) | 32 µg/mL (≈ 21.2 µM) | 16 µg/mL (≈ 10.6 µM) | 16 µg/mL (≈ 10.6 µM) | 16 µg/mL (≈ 10.6 µM) | 1.77 ± 0.18 nmol min^-1 (mg dry weight)^-1 | 1.92 ± 0.18 nmol min^-1 (mg dry weight)^-1 | 0.22 ± 0.03 nmol min^-1 (mg dry weight)^-1 | 2.25 ± 0.15 nmol min^-1 (mg dry weight)^-1 | 0.18 ± 0.02 nmol min^-1 (mg dry weight)^-1 | 1.64 ± 0.11 nmol min^-1 (mg dry weight)^-1 | 2.28 ± 0.15 nmol min^-1 (mg dry weight)^-1

— PMC5673977, “Transport Deficiency Is the Molecular Basis of Candida albicans Resistance to Antifungal Oligopeptides” (Frontiers in Microbiology, 2017)
